The values below come from PMC8896685 (PLoS ONE, 2022).

A word on the EC50: it is the concentration needed to bring the measured effect to its halfway point. Broadly, the half-life is the time needed for the level to fall by half in the phase considered. Low values mean fast loss, high ones slow loss.

The test system of one data set is DIO mice. Description: Subchronic effect on body weight, body composition and food intake in DIO mice. Format: in vivo, mouse. An excerpt: Male C57Bl/6J mice were purchased from Jackson Lab (Bar Harbour, ME) or Taconic, (Denmark). Male Sprague Dawley rats were purchased from Taconic (Denmark). Lean animals were fed regular chow diet (Altromin 1324, Brogaarden, Denmark). Obese animals were fed a high-fat diet, 45% kcal from fat (D12492, Research Diets, New Brunswick, NJ) from the age of 4–6 weeks in order to obtain a diet induced obese (DIO) phenotype. Animals were housed under temperature and humidity-controlled conditions in a 12:12 hr light:dark cycle (lights on at 6 a.m.). Rats were housed three per cage during high fat feeding and were single housed five weeks prior to study. Mice were single housed, two per cage, with a partitioning wall where possible. All animals had ad libitum access to diet and water, except when fasted prior to experimental procedures. Animals were acclimatized to study conditions (energy expenditure cages, daily mock handling etc) at least one week prior to first dose. […] At the time of study, animals were 20–30 weeks old with a body weight of 45–50 g (DIO mice) or approximately 600 g (DIO rats).
DIO mice received s.c. injections once daily for 4–5 weeks. Animals were dosed at different times of day to allow for assessment of glucose tolerance and other metabolic parameters at same time of day but at different time points in relation to dosing. […] Body composition was assessed in conscious animals by Magnetic Resonance (MR) scanning prior to initiation of treatment and at the end of the treatment period. Steady-state plasma parameters were assessed in non-fasted animals. Additional DIO mice (n = 4) were included for verification of 24-h peptide exposure in steady state. The mice received s.c. doses daily for 2 weeks (13 days) with 3 nmol/kg NN1177; 5 nmol/kg NN1151 or 5 nmol/kg NN1359, where after plasma sampled after t = 5 h (NN1177) or 6 h (NN1151, NN1359), 10 h (all co-agonists) and 24 h (all co-agonists) post-dosing was analysed for exposure.
Analogues were tested for subchronic effect in two different set-ups. […] The Cmax and Cmin animals were included in separate treatment groups and evaluated head-to-head for glucose tolerance and additional metabolic parameters at the end of the treatment period. […] IPGTT was performed as described above, but additionally blood was sampled from vena facialis of conscious animals at t = 210 min relative to the administration of glucose for exposure analysis.
IPGTT was performed as described above.
All in vivo data are presented as mean ±SEM. […] For the comparison of NN1177, NN1151 and NN1359 on glucose tolerance, vehicle-subtracted values were used to enable comparison across studies.

A further data set deals with T1, Mouse GCGR (Mus musculus, UniProt Q61606).
T1 construct: a plasmid encoding either the glucagon receptor or the GLP-1 receptor from the relevant species; expressed in transfected cells
T1 sequence (Q61606 27-485): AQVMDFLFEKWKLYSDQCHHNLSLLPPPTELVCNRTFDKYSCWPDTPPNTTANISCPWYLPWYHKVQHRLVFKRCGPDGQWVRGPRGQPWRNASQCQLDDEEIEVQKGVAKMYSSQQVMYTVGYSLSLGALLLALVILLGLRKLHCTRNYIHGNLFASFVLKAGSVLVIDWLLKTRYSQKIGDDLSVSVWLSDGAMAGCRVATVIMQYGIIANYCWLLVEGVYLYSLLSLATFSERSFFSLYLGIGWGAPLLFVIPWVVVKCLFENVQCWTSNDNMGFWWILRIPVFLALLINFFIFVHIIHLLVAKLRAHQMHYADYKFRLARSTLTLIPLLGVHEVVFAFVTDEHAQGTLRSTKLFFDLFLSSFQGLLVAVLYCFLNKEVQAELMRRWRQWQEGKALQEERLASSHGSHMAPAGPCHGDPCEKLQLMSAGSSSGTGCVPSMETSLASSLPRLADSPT
Nature of the data set: Receptor potency, CRE-luciferase functional assay in BHK cells. In kind it is cell-based. To be noted: GCGR EC50, pM (95% CI) 100% plasma, Mouse receptors, whole BHK cells, 100% species-specific plasma, 3 h 37°C, value (95% CI). On the procedure: The binding assay was performed on cell membranes in the presence of 1% (v/v) species-specific heparin-treated pooled plasma (Bioreclamation IVT, Westbury, NY) diluted in assay buffer (50 mM HEPES supplemented with 5 mM EGTA, 5 mM MgCl2, and 0.005% (v/v) Tween 20, pH7.4). […] Cells stably expressing an individual receptor of interest were grown at 5% CO2, 37°C in DMEM (supplemented with 10% FCS, 0.5 mg/ml G418 and 0.3 mg/ml hygromycin). Membrane preparations were made from cells harvested at approximately 80% confluence, washed and homogenized in 20 mM HEPES with 0.1 mM EDTA, pH 7.4. Protein concentration was determined, and the membranes were stored at -80°C until use. The membrane binding assay was performed in a 96-well OptiPlate (PerkinElmer) in a total volume of 200 μl. Test compounds were dissolved in 80% DMSO and further diluted in assay buffer. 50 μl of diluted plasma was added to the assay plate wells followed by addition of test compounds (25 μl), cell membranes (50 μl, 0.06 mg/ml), SPA beads (20 mg/ml in assay buffer) and radioligand (60,000 cpm/well, corresponding to 0.06 nM; 2200 Ci/mmol. Each assay plate was incubated for 2 h at 30°C, centrifuged at 1500 rpm for 10 minutes and counted in a TopCount NXT instrument (PerkinElmer).
Functional assays were performed on whole cells in the absence or presence of 100% species-specific heparin-treated pooled plasma (Bioreclamation IVT). […] The cells were cultured with DMEM (supplemented with GlutaMAX, 10% FBS, 0.5 mg/ml G418 and 0.3 mg/ml hygromycin) at 5% CO2 and 37°C. At approximately 80–90% confluence, cells were washed with PBS and harvested with Versene (Life Technologies, Carlsbad, CA). The cells were counted and plated into 96-well microtiter plates coated with poly-D-Lys (Corning BioCoat) with 5,000 cells/well and thereafter incubated overnight in growth media. The next day the media was changed to assay buffer (DMEM without phenol red, supplemented with GlutaMAX, 10 mM HEPES, 1% ovalbumin and 0.1% Pluronic F-68) or to 100% plasma. In the absence of plasma, compounds were diluted in assay buffer. In assays tested with plasma, compounds were diluted in pure plasma. Buffer was removed from the plates and 50 μl of test compound dilutions was added to the plates followed by 50 μl of plasma or the same buffer used for compound dilution. The assay plates were incubated for 3 h in a 5% CO2 incubator at 37°C. The plates were then transferred to room temperature for 15 min and 100 μl Steadylite Plus reagent (PerkinElmer) was added to each well. The plates were shaken for 30 min at room temperature while protected from light after which luminescence was measured.
For the receptor binding assays, logIC50 values were calculated using non-linear regression analysis. The error estimation was reported as the 95% confidence interval. […] The calculations were performed in GraphPad Prism 6.4 (GraphPad, San Diego, CA) and error estimation was expressed as the 95% confidence interval. […] Averages, error estimation, ratios and plasma shifts were all calculated on logIC50 or logEC50 values and transformed to the anti-log values for reporting purposes.

The next data set can be described thus: in vivo. To be noted: rat, iv. On the procedure:
Compound exposure was measured by Luminescence Oxygen Channeling Immunoassay (LOCI). […] The three reactants were combined with the analyte and formed a two-sited immuno-complex. Illumination of the complex released singlet oxygen […] from the donor beads. They were channeled into the acceptor beads and triggered a chemiluminescence response which was measured in an EnVision plate reader (PerkinElmer). The amount of light was proportional to the concentration of the analyte. As calibrators, a dilution line of the relevant analyte in rat/mouse plasma was included.
At t=0, 5 min, 10 min, 30 min, 2 h, 4 h, 8 h, 12 h, 24 h, 32 h, 48 h, 56 h, and 72 h post dosing, plasma was sampled from the sublingual plexus for analysis of plasma exposure measured by LOCI.
Plasma concentration-time profiles were analysed using non-compartmental analysis (NCA) using Phoenix WinNonlin Professional 6.3 (Pharsight, Mountain View, CA, US). Calculations were performed using full concentration-time profile values or sparse sampling concentration-time values as appropriate.

Structures are written as SMILES. Numbered stars: 1 amine (or outer) side, 2 acyl side, 3 side chain; on linkers, the order of the positions; unused ones are H or OH. Square brackets hold non-standard residues; d marks the D form. Side chains are listed from the residue outwards. Peptide text beside a SMILES is read from it. * marks the point of attachment. C18 diacid = O=C(O)CCCCCCCCCCCCCCCCC(=O)*; γGlu = O=C(O)[C@H](CCC(=O)[*:2])N[*:1]; Ac4c = NC1(C(=O)O)CCC1; AEEA = NCCOCCOCC(=O)O; Aib = CC(C)(N)C(=O)O

For `CC(C)C[C@H](NC(=O)[C@H](CC(C)C)NC(=O)[C@H](Cc1c[nH]c2ccccc12)NC(=O)[C@H](CCC(N)=O)NC(=O)[C@@H](NC(=O)[C@H](Cc1ccccc1)NC(=O)[C@H](CCC(=O)O)NC(=O)[C@H](CCCNC(=N)N)NC(=O)[C@H](C)NC(=O)[C@H](C)NC(=O)[C@H](CCCNC(=N)N)NC(=O)[C@H](CO)NC(=O)[C@H](CC(=O)O)NC(=O)[C@H](CC(C)C)NC(=O)[C@H](Cc1ccc(O)cc1)NC(=O)[C@H](CCCCN)NC(=O)[C@H](CO)NC(=O)[C@H](CC(C)C)NC(=O)[C@H](CC(=O)O)NC(=O)[C@H](CO)NC(=O)[C@@H](NC(=O)[C@H](Cc1ccccc1)NC(=O)[C@@H](NC(=O)CNC(=O)[C@H](CCC(=O)O)NC(=O)C(C)(C)NC(=O)[C@@H](N)Cc1c[nH]cn1)[C@@H](C)O)[C@@H](C)O)C(C)C)C(=O)N[C@@H](CC(N)=O)C(=O)N[C@@H](CCCCNC(=O)CC[C@H](NC(=O)CC[C@H](NC(=O)COCCOCCNC(=O)COCCOCCNC(=O)CC[C@H](NC(=O)CCCCCCCCCCCCCCCCC(=O)O)C(=O)O)C(=O)O)C(=O)O)C(N)=O` [GLP-1 reference] (H-H[Aib]EGTFTSDLSKYLDSRAAREFVQWLLNK([γGlu-γGlu-AEEA-AEEA-γGlu-C18 diacid])-NH2), in the data set with DIO mice (5 nmol/kg s.c. once daily, 4–5 weeks, p<0.001), the Body weight reduction is on record as 10%-17%. Also, the EC50 on Mouse GCGR is 442000 pM.

`CC(C)C[C@H](NC(=O)[C@H](CC(=O)O)NC(=O)[C@H](CC(C)C)NC(=O)[C@H](Cc1ccc(O)cc1)NC(=O)[C@H](CCCCN)NC(=O)[C@H](CO)NC(=O)[C@H](CC(C)C)NC(=O)[C@H](CC(=O)O)NC(=O)[C@H](CO)NC(=O)[C@@H](NC(=O)[C@H](Cc1ccccc1)NC(=O)[C@@H](NC(=O)CNC(=O)[C@H](CCC(N)=O)NC(=O)C1(NC(=O)[C@@H](N)Cc2c[nH]cn2)CCC1)[C@@H](C)O)[C@@H](C)O)C(=O)N[C@@H](CCCNC(=N)N)C(=O)N[C@@H](CCCNC(=N)N)C(=O)N[C@@H](C)C(=O)N[C@@H](CCCNC(=N)N)C(=O)N[C@@H](CC(=O)O)C(=O)N[C@@H](Cc1ccccc1)C(=O)N[C@H](C(=O)N[C@@H](CCC(N)=O)C(=O)N[C@@H](Cc1c[nH]c2ccccc12)C(=O)N[C@@H](CC(C)C)C(=O)N[C@@H](CC(C)C)C(=O)N[C@@H](CCCCNC(=O)CC[C@H](NC(=O)CC[C@H](NC(=O)COCCOCCNC(=O)COCCOCCNC(=O)CC[C@H](NC(=O)CC[C@H](NC(=O)CCCCCCCCCCCCCCCCC(=O)O)C(=O)O)C(=O)O)C(=O)O)C(=O)O)C(=O)N[C@H](C(N)=O)[C@@H](C)O)C(C)C` [NN1151] (H-H[Ac4c]QGTFTSDLSKYLDLRRARDFVQWLLK([γGlu-γGlu-AEEA-AEEA-γGlu-γGlu-C18 diacid])T-NH2) had a half-life in “in vivo” of 4 h. The “Effect on body weight” value in the data set with DIO mice (1 nmol/kg s.c. once daily, 4 weeks) is “No effect”. In addition, the “Effect on body weight / tolerated weight loss” value in the data set with DIO mice (10 and 30 nmol/kg s.c. once daily, maximum ethically tolerated weight loss reached) is “majority of mice had to be terminated prematurely”. Besides, the EC50 at Mouse GCGR was determined as 60.3 pM.
